Ten compounds from ChEMBL document CHEMBL1135881, “Ribose-modified nucleosides as ligands for adenosine receptors: synthesis, conformational analysis, and biological evaluation of 1'-C-methyl adenosine analogues” (J Med Chem, 2002) can be followed below.

One experiment has as its target T1, Adenosine receptor A1 (Rattus norvegicus, UniProt P25099).
T1 sequence (P25099 whole entry): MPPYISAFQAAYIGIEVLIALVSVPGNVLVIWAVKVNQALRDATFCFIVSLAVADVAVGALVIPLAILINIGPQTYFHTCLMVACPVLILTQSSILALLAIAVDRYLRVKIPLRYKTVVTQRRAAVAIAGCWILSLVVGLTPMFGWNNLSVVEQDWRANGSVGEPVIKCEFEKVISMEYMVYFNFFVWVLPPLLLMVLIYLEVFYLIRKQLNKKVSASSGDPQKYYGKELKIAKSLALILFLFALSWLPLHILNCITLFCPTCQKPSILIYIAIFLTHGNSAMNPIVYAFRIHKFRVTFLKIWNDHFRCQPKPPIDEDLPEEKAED

For experiment [1], the target named is T2, Adenosine receptor A3 (Rattus norvegicus) (UniProt P28647).
T2 sequence (whole entry): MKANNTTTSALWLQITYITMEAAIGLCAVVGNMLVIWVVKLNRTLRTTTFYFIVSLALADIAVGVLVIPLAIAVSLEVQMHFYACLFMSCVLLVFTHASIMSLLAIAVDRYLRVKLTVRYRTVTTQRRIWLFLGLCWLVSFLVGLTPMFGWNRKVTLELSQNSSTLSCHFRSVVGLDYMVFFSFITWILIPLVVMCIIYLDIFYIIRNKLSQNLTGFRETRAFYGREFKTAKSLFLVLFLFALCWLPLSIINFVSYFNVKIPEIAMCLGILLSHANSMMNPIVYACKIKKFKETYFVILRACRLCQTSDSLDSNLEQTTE
The experiment is described as follows: Displacement of [3H](R)-PIA from Adenosine A3 receptor of rat testis membrane with 150 nM DPCPX at 10e-5 M.

For experiment [2], the target named is Adenosine receptors; A1 & A3 (Rattus norvegicus) (UniProt P25099+P28647). The experiment is described as follows: Selectivity for Adenosine A3 over Adenosine A1 receptor. It is filed as protein assay.
The species named for experiment [3] is Rattus norvegicus. The experiment is described as follows: % maximal inhibition of Adenylyl cyclase activity in rat cortical membranes at 100 uM. It is filed as functional.
The species named for experiment [4] is Rattus norvegicus. The experiment is described as follows: Inhibition of Adenylyl cyclase activity in rat cortical membranes. It is filed as functional.
A further experiment concerns the target T3, Adenosine receptor A3 (Rattus norvegicus, UniProt P28647).
T3 sequence (P28647 whole entry): T2 sequence (whole entry)
Description: Affinity to Adenosine A3 receptor of rat testis membrane using [3H](R)-PIA with 150 nM DPCPX.

In the next experiment the target is Adenosine receptor A2a (Rattus norvegicus, UniProt P30543). Description: Affinity to Adenosine A2A receptor of rat brain striatum using [3H]-CGS- 21680. It is filed as tissue-based.
Chain of Adenosine receptor A2a (P30543 whole entry): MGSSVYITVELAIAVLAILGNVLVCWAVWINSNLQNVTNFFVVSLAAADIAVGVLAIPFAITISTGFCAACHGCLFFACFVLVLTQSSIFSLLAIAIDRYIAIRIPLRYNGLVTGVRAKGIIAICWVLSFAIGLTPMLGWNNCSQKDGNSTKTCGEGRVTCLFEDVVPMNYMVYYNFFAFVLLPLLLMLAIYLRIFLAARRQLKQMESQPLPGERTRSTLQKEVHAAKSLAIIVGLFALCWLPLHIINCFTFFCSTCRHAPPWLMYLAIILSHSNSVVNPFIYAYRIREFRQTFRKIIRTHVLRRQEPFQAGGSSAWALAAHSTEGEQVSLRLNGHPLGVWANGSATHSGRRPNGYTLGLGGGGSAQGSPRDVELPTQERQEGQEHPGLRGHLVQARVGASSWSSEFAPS
Experiment [5] deals with T2, Adenosine receptor A3 (Rattus norvegicus). The experiment is described as follows: Displacement of [3H](R)-PIA from Adenosine A3 receptor of rat testis membrane with 150 nM DPCPX.
Experiment [6] is filed under the species Rattus norvegicus. The experiment is described as follows: % maximal inhibition of Adenylyl cyclase activity in rat cortical membranes at 10 uM. It is filed as functional.

Description for Adenosine receptor A1: Inhibition of [3H]CHA (N6-cyclohexyl adenosine) to rat brain membrane Adenosine A1 receptor

In turn, `C[C@@]1(O)[C@H](O)[C@@H](CO)O[C@H]1n1cnc2c(N)ncnc21` registered a Ki on Adenosine receptor A1 of 740 nM. The Displacement in experiment [1] came to 0%.

For `C[C@@]1(O)[C@H](O)[C@@H](CO)O[C@H]1n1cnc2c(NC3CCCC3)ncnc21`, the Selectivity in [2] turned out to be 22.1. In addition, the Ki on Adenosine receptor A1 stood at 9.5 nM.

Take `C[C@@]1(n2cnc3c(NC4CCCC4)ncnc32)O[C@H](CO)[C@@H](O)[C@H]1O`: the Max inhibition in the experiment listed under Rattus norvegicus [3] was found to be 17.4%. In [2], the Selectivity was determined as 52. In the experiment listed under Rattus norvegicus [4], this compound yielded an IC50 of 357 nM. In addition, the Ki is 5170 nM at Adenosine receptor A3 and 100 nM at Adenosine receptor A1.

As to `C[C@@]1(O)[C@@H](CO)O[C@@H](n2cnc3c(N)ncnc32)[C@@H]1O`, the Selectivity in [2] was > 202.

With `C[C@@H](Cc1ccccc1)Nc1ncnc2c1ncn2[C@]1(C)O[C@H](CO)[C@@H](O)[C@H]1O`, the Max inhibition in the experiment filed under Rattus norvegicus [3] is 29%. In addition, the IC50 in the experiment filed under Rattus norvegicus [4] is 140 nM. Also, the Ki amounted to 6160 nM at Adenosine receptor A3 and 270 nM at Adenosine receptor A1.

In the case of `C[C@@H](Cc1ccccc1)Nc1ncnc2c1ncn2C1O[C@H](CO)[C@@H](O)[C@@]1(C)O` (some centres undefined), in [2], the Selectivity came out at 200. The same compound had a Ki at Adenosine receptor A1 of 50 nM.

Turning to `C[C@H](Cc1ccccc1)Nc1ncnc2c1ncn2[C@]1(C)O[C@H](CO)[C@@H](O)[C@H]1O`, in the experiment listed under Rattus norvegicus [3], the Max inhibition was 23.7%. The compound also showed an IC50 in the experiment listed under Rattus norvegicus [4] of 65 nM. The compound further yielded a Ki at Adenosine receptor A3 of 670 nM.

On to `C[C@H](Cc1ccccc1)Nc1ncnc2c1ncn2[C@@H]1O[C@H](CO)[C@@H](O)[C@@]1(C)O`, for which, in experiment [2], the Selectivity was determined as 230. Further, the Ki stood at 4.7 nM on Adenosine receptor A1 and 7400 nM on Adenosine receptor A2a.

As to `C[C@@]1(n2cnc3c(N)ncnc32)O[C@H](CO)[C@@H](O)[C@H]1O`, the Max inhibition in the experiment listed under Rattus norvegicus [3] turned out to be 22%. The Selectivity in experiment [2] is > 1.3. This compound gave a half-maximal inhibitory concentration (IC50) in the experiment listed under Rattus norvegicus [4] of 3440 nM. This compound showed a Ki at Adenosine receptor A1 of 7700 nM. For the same compound, in [5], the Displacement was 19%.

Consider `OC[C@H]1O[C@@H](n2cnc3c(NC4CCCC4)ncnc32)[C@H](O)[C@@H]1O` [N6-CYCLOPENTYLADENOSINE], for which, in the experiment listed under Rattus norvegicus [6], the Max inhibition came out at 15.5%. The compound also returned a Ki at Adenosine receptor A2a of 380 nM.
